Reference: PubChem BioAssay (NCI)
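A five-concentration, 48-hour dose response in 96-well plates underlies each endpoint, interpolated linearly between surrounding concentrations. TGI marks complete inhibition of growth.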

Experiments:
Experiment in all cases: NCI tumour cell line growth inhibition, 48 h
SN12K1 renal = test system: SN12K1 renal
HOP-18 NSCLC = test system: HOP-18 NSCLC
CAKI-1 renal = test system: CAKI-1 renal
DLD-1 colon = test system: DLD-1 colon
P388/ADR leukemia = test system: P388/ADR leukemia
XF 498 CNS = test system: XF 498 CNS
KM20L2 colon = test system: KM20L2 colon
P388 leukemia = test system: P388 leukemia
NCI-H460 lung = test system: NCI-H460 lung
M19-MEL melanoma = test system: M19-MEL melanoma
SNB-78 CNS = test system: SNB-78 CNS
DMS 273 small cell lung = test system: DMS 273 small cell lung
DMS 114 small cell lung = test system: DMS 114 small cell lung
SK-MEL-2 melanoma = test system: SK-MEL-2 melanoma
M14 melanoma = test system: M14 melanoma
BT-549 breast = test system: BT-549 breast

| Compound | TGI (SN12K1 renal) [µM] | TGI (HOP-18 NSCLC) [µM] | TGI (CAKI-1 renal) [µM] | TGI (DLD-1 colon) [µM] | TGI (P388/ADR leukemia) [µM] | TGI (XF 498 CNS) [µM] | TGI (KM20L2 colon) [µM] | TGI (P388 leukemia) [µM] | TGI (NCI-H460 lung) [µM] | TGI (M19-MEL melanoma) [µM] | TGI (SNB-78 CNS) [µM] | TGI (DMS 273 small cell lung) [µM] | TGI (DMS 114 small cell lung) [µM] | TGI (SK-MEL-2 melanoma) [µM] | TGI (M14 melanoma) [µM] | TGI (BT-549 breast) [µM] |
| --- | --- | --- | --- | --- | --- | --- | --- | --- | --- | --- | --- | --- | --- | --- | --- | --- |
| COc1ccc2cc1Oc1ccc(cc1)C[C@H]1c3cc(c(OC)cc3CCN1C)Oc1c(O)c(OC)cc3c1[C@H](C2)N(C)CC3 | 39.2 | 139 | 3.55 | 53.7 | 109 | 49.4 | 4.27 | 19.8 | 45.2 | 43.4 | 117 | 40.1 | 49.7 | 48.5 |  |  |
| CC1=C(Cl)C=CP(=O)(Oc2ccccc2)C1 (stereo unspecified) |  | 89.6 | > 100 |  |  | > 100 | > 100 |  | > 100 |  | > 100 | 75.9 | 90.9 | > 100 | 38.2 |  |
| N#C/C(=C1/Sc2c(nc[nH]c2=O)N1c1ccccc1)c1nc2ccccc2[nH]1 |  |  | > 100 | > 100 |  | > 100 | > 100 |  | > 100 | > 100 | > 100 | > 100 | > 100 | > 100 | > 100 |  |
| Cc1ccc(NC(=O)CC2Sc3ccccc3NC2=O)cc1C (stereo unspecified) |  | > 100 | > 100 | > 100 |  | > 100 | > 100 |  | > 100 | > 100 | > 100 | > 100 | > 100 | > 100 | > 100 |  |
| Nc1c(S(=O)(=O)O)cc2cc(S(=O)(=O)O)ccc2c1N=Nc1ccc(-c2ccc(N=Nc3c(N)c(S(=O)(=O)O)cc4cc(S(=O)(=O)O)ccc34)c(S(=O)(=O)O)c2)cc1 | > 100 | > 100 |  | > 100 | > 100 | > 100 | > 100 | > 100 | > 31.6 | > 100 | > 100 | > 100 | > 100 | > 100 |  |  |
| Nc1nc(SCCC/C=C/I)nc2c1ncn2C1OC(COP(=O)(O)O)C(O)C1O (stereo unspecified) |  |  |  | > 100 |  | > 100 | > 100 |  | > 100 | > 100 | > 100 | > 100 | > 100 | > 100 | > 100 |  |
| COC(=O)[C@@H](O)[C@](O)(CCC(C)C)C(=O)O[C@@H]1C(OC)=C[C@]23CCCN2CCc2cc4c(cc2[C@H]13)OCO4 | 5.89 | 7.81 | 7.36 | > 19.7 | 11 |  | 9.49 | 1.16 | 1.7 | 4.16 | 10.9 | 3.47 | 2.2 | 9.15 |  |  |
| CCCCCCCC/C=C\CCCCCCCCCCCC(=O)O | 52.4 | > 125 | > 117 | > 125 | 36.3 | 2.82 | 122 | 51.6 | 34.9 | 97.2 | > 115 | 48.7 |  | 31.1 |  |  |
| O=C(/C=C/c1ccc2c(c1)OCO2)c1ccc(O)cc1 |  |  | 28.7 |  |  |  |  |  | 28.6 |  |  |  |  | 32.7 | 32.2 | 27.4 |
| Cc1cc(C)nc(NS(=O)(=O)c2ccc(NC(=O)c3ccc4nc5ccccc5c(Nc5ccc(S(N)(=O)=O)cc5)c4c3)cc2)n1 |  |  | > 100 |  |  |  |  |  | > 100 |  |  |  |  | > 100 | > 100 | > 100 |
